This note sets out measurements from publication PMC7105138, “Modeling cancer genomic data in yeast reveals selection against ATM function during tumorigenesis” (PLoS Genetics, 2020).

Substitutions are numbered along the chain they refer to.

Data set [1] concerns the target T1, Rad50 (Saccharomyces cerevisiae, UniProt P12753, D67Y).
T1 construct: full-length Rad50 with C-terminal 1xFLAG tag (DYKDDDDK), tag kept; plasmid pR50.1 (2mu, GAL-PGK-RAD50); overexpressed and purified from yeast
T1 sequence (P12753 1-1312 D67Y): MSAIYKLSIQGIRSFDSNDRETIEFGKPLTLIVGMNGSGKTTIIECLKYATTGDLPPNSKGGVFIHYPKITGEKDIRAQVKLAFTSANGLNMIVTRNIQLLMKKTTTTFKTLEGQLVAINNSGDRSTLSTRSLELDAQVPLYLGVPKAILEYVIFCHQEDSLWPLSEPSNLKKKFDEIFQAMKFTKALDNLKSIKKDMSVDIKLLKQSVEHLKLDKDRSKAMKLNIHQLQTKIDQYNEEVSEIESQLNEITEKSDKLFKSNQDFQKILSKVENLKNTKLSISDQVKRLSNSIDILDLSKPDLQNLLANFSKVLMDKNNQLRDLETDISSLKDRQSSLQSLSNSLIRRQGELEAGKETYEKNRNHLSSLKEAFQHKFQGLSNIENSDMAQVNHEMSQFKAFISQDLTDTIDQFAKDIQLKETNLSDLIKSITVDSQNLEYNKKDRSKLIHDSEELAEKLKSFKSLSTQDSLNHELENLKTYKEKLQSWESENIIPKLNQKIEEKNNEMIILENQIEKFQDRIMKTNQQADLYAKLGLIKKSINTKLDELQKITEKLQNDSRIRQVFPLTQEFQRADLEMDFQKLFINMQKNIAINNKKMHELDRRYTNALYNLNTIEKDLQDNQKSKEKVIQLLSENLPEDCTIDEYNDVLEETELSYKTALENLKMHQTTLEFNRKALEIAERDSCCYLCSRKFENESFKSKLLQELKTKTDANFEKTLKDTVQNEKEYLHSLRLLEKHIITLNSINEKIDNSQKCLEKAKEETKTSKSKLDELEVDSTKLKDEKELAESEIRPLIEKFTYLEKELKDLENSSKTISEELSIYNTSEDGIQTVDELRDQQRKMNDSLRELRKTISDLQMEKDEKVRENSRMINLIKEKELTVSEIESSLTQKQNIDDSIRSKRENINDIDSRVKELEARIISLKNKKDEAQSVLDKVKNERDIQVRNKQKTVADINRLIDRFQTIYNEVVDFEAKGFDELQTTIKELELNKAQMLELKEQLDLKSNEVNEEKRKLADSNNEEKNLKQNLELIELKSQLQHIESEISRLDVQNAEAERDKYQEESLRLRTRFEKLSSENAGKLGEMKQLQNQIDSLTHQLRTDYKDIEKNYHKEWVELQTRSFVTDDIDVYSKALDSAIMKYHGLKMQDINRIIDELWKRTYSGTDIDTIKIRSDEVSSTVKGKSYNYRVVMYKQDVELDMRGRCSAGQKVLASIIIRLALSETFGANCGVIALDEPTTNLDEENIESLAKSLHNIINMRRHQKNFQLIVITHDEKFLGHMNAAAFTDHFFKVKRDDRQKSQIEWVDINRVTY
Briefly: nitrocellulose filter binding, […]-ATP. The settings on record: 2 uM Rad50, 50 uM ATP incl. 0.1 uM alpha-32P-ATP (labelled compound), 2 mM MgCl2, pH 8.0, RT then ice.

Data set [2] addresses T2, Rad50 (Saccharomyces cerevisiae, UniProt P12753).
T2 construct: full-length Rad50 with C-terminal 1xFLAG tag (DYKDDDDK), tag kept; plasmid pR50.1 (2mu, GAL-PGK-RAD50); overexpressed and purified from yeast
T2 sequence (P12753 1-1312): T1 sequence (P12753 1-1312 D67Y) with Y67D
Briefly: nitrocellulose filter binding, […]-ATP. The settings on record: 2 uM Rad50, 50 uM ATP incl. 0.1 uM alpha-32P-ATP (labelled compound), 2 mM MgCl2, pH 8.0, RT then ice.

Data set [3] addresses T3, Rad50 (Saccharomyces cerevisiae, UniProt P12753, D67N).
T3 construct: full-length Rad50 with C-terminal 1xFLAG tag (DYKDDDDK), tag kept; plasmid pR50.1 (2mu, GAL-PGK-RAD50); overexpressed and purified from yeast
T3 sequence (P12753 1-1312 D67N): T1 sequence (P12753 1-1312 D67Y) with Y67N
Briefly: nitrocellulose filter binding, […]-ATP. The settings on record: 2 uM Rad50, 50 uM ATP incl. 0.1 uM alpha-32P-ATP (labelled compound), 2 mM MgCl2, pH 8.0, RT then ice.

For data set [4], the target named is T4, Rad50 (Saccharomyces cerevisiae, UniProt P12753, L1240F).
T4 construct: full-length Rad50 with C-terminal 1xFLAG tag (DYKDDDDK), tag kept; plasmid pR50.1 (2mu, GAL-PGK-RAD50); overexpressed and purified from yeast
T4 sequence (P12753 1-1312 L1240F): T1 sequence (P12753 1-1312 D67Y) with Y67D, L1240F
Briefly: nitrocellulose filter binding, […]-ATP. The settings on record: 2 uM Rad50, 50 uM ATP incl. 0.1 uM alpha-32P-ATP (labelled compound), 2 mM MgCl2, pH 8.0, RT then ice.

The test system of data set [5] is Rad50 WT (Saccharomyces cerevisiae). Briefly: EMSA. The settings on record: ATP, 5 mM Mg2+, 150 mM NaCl; 25 mM Tris-Cl pH 7.6, 150 mM NaCl (also 50, 250, 300 mM), 7.5% glycerol, 1 mM beta-mercaptoethanol, 0.125% Igepal, 5 mM MgCl2, with or without 5 mM ATP; 5 nM ….

For the compound `Nc1ncnc2c1ncn2[C@@H]1O[C@H](COP(=O)(O)OP(=O)(O)OP(=O)(O)O)[C@@H](O)[C@H]1O` [ATP], the ATP/Rad50 is listed as 0.7 ATP/Rad50 on Rad50 [1], 0.6 ATP/Rad50 on Rad50 [3] and 0.4 ATP/Rad50 at Rad50 [4]. For the same compound, at Rad50 [2], the “molar ratio of bound ATP to Rad50” value is listed as 1.1 ATP/Rad50.
83-mer dsDNA oligonucleotide came in with a dissociation constant Kd in data set [5] of 180 nM.
